# Experimental data reported in US20220242844A1, “CANNABINOID DERIVATIVES” (CANOPY GROWTH CORPORATION, priority 2019, published 2022).
# Like-named read-outs stand apart in the source and are kept apart here.
# How the values were obtained:
# human CB2 receptor = molecular target: T1, human CB2 receptor (Homo sapiens, UniProt P34972); assay: CB2 radioligand ([3H]CP 55,940) competitive binding assay; conditions: for Selectivity CB2: fold difference in binding affinity, CB2 over CB1, 1.00 = about the same affinity for both receptors
# T1 construct: host or cells: CHO-K1 (Chinese hamster ovary) cells, stably transfected; membranes prepared in house
# T1 sequence (P34972 whole entry): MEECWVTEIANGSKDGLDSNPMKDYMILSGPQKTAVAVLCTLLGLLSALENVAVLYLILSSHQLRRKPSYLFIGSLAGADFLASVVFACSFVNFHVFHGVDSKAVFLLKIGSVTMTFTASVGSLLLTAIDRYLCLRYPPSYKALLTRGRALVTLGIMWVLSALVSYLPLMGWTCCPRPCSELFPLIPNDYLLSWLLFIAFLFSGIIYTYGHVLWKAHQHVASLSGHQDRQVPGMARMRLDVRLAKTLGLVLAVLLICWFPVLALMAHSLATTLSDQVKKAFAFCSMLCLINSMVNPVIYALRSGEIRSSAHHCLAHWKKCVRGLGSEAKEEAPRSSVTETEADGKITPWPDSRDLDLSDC
# human CB1 receptor = molecular target: T2, human CB1 receptor (Homo sapiens, UniProt P21554); assay: CB1 radioligand ([3H]CP 55,940) competitive binding assay; conditions: for Selectivity CB1: fold difference in binding affinity, CB1 over CB2, 1.00 = about the same affinity for both receptors
# T2 construct: host or cells: CHO-K1 (Chinese hamster ovary) cells, stably transfected; membranes prepared in house
# T2 sequence (P21554 whole entry): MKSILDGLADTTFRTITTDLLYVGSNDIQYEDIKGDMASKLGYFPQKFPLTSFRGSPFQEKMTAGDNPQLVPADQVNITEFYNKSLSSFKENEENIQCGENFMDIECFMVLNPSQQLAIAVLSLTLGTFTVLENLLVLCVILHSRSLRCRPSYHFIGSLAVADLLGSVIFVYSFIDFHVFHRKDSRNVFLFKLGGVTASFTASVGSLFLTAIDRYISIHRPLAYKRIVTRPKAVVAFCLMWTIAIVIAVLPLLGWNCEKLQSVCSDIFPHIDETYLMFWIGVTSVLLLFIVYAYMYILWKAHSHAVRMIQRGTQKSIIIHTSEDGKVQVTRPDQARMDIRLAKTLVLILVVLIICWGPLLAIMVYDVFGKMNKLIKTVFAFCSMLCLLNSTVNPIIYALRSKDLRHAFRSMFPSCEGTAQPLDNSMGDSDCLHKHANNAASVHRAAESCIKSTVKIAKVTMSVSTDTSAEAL
# [1] = [3H]CP 55,940 displacement, membranes of CHO-K1 cells expressing human CB2 receptor, read-out: CB2 IC50
# [2] = [3H]CP 55,940 displacement, membranes of CHO-K1 cells expressing human CB1 receptor, read-out: CB1 IC50
Compound,IC50 (human CB2 receptor; [1]) [µM],Selectivity CB2 (human CB2 receptor) [fold],IC50 (human CB1 receptor; [2]) [µM],Selectivity CB1 (human CB1 receptor) [fold],IC50 (human CB2 receptor) [µM],IC50 (human CB1 receptor) [µM]
"CCCCCc1cc(O)c(C2C=C(C)CCC2)c2c1C(=O)OCO2 (centres unmarked) [Compound 1c, 7-hydroxy-8-(3-methylcyclohex-2-en-1-yl)-5-pentyl-4H-benzo[d][1,3]dioxin-4-one]",1 to 9.9,,,,,
"C=C(C)[C@@H]1CCC(C)=C[C@H]1c1c(O)cc(CCCCC)c2c1OCOC2=O [Compound 1d, 7-hydroxy-8-(3-methyl-6-(prop-1-en-2-yl)cyclohex-2-en-1-yl)-5-pentyl-4H-benzo[d][1,3]dioxin-4-one]",1 to 9.9,1.00,1 to 9.9,1.00,,
"CCCCCc1cc(O)c(-c2cccc(C)c2)c2c1C(=O)OC(C)(C)O2 [Compound 2a, 7-hydroxy-2,2-dimethyl-8-(m-tolyl)-5-pentyl-1,3-benzodioxin-4-one]",1 to 9.9,3.08,10 to 19.9,,,
"CCCCCc1cc(O)c(C2C=C(C)CCC2)c2c1C(=O)OC(C)(C)O2 (centres unmarked) [Compound 2c, 7-hydroxy-2,2-dimethyl-8-(3-methylcyclohex-2-en-1-yl)-5-pentyl-4H-benzo[d][1,3]dioxin-4-one]",,,,2.76,10 to 19.9,1 to 9.9
"C=C(C)[C@@H]1CCC(C)=C[C@H]1c1c(O)cc(CCCCC)c2c1OC(C)(C)OC2=O [Compound 2d, 7-hydroxy-2,2-dimethyl-8-(3-methyl-6-(prop-1-en-2-yl)cyclohex-2-en-1-yl)-5-pentyl-4H-benzo[d][1,3]dioxin-4-one]",10 to 19.9,2.00,> 20,,,
"C=C(C)C1CCC(C)=CC1c1c(O)cc(CCCCC)c2c1OC(c1ccccc1)OC2=O (centres unmarked) [Compound 3d, 7-hydroxy-8-(3-methyl-6-(prop-1-en-2-yl)cyclohex-2-en-1-yl)-5-pentyl-2-phenyl-4H-benzo[d][1,3]dioxin-4-one]",1 to 9.9,,< 1,2.53,,
"C=C(C)C1CCC(C)=CC1c1c(O)cc(CCCCC)c2c1OC(C)(CC(C)=O)OC2=O (centres unmarked) [Compound 7d, 7-hydroxy-2-methyl-8-(3-methyl-6-(prop-1-en-2-yl)cyclohex-2-en-1-yl)-2-(2-oxopropyl)-5-pentyl-4H-benzo[d][1,3]dioxin-4-one]",,13.33,,,1 to 9.9,> 20
"CCCCCc1cc(O)c(C2C=C(C)CCC2)c2c1C(=O)OC1(CCCC1)O2 (centres unmarked) [Compound 9c, 7-hydroxy-8-(3-methylcyclohex-2-en-1-yl)-5-pentyl-spiro[1,3-benzodioxine-2,1′-cyclopentane]-4-one]",,3.32,,,1 to 9.9,10 to 19.9
"C=C(C)[C@@H]1CCC(C)=C[C@H]1c1c(O)cc(CCCCC)c2c1OC(C)(COC)OC2=O (some centres unmarked) [Compound 11d, 7-hydroxy-2-(methoxymethyl)-2-methyl-8-(3-methyl-6-(prop-1-en-2-yl)cyclohex-2-en-1-yl)-5-pentyl-4H-benzo[d][1,3]dioxin-4-one]",,1.89,,,10 to 19.9,> 20
"CCCCCc1cc(O)c(-c2cccc(C)c2)c2c1C(=O)OC(CC(C)=O)(c1ccccc1)O2 (centres unmarked) [Compound 12a, 2-acetonyl-7-hydroxy-8-(m-tolyl)-5-pentyl-2-phenyl-1,3-benzodioxin-4-one]",,1.53,,,10 to 19.9,> 20
"CCCCCc1cc(O)c(C2C=C(C)CCC2)c2c1C(=O)OC(CC(C)=O)(c1ccccc1)O2 (centres unmarked) [Compound 12c, 7-hydroxy-8-(3-methylcyclohex-2-en-1-yl)-2-(2-oxopropyl)-5-pentyl-2-phenyl-4H-benzo[d][1,3]dioxin-4-one]",,1.37,,,1 to 9.9,1 to 9.9
"C=C(C)[C@@H]1CCC(C)=C[C@H]1c1c(O)cc(CCCCC)c2c1OC(CC(C)=O)(c1ccccc1)OC2=O (some centres unmarked) [Compound 12d, 7-hydroxy-8-(3-methyl-6-(prop-1-en-2-yl)cyclohex-2-en-1-yl)-2-(2-oxopropyl)-5-pentyl-2-phenyl-4H-benzo[d][1,3]dioxin-4-one]",,1.00,,1.00,1 to 9.9,1 to 9.9
"CCCCCc1cc(O)c(C2C=C(C)CCC2)c2c1C(=O)OC(CC(C)=O)O2 (centres unmarked) [Compound 14c, 7-hydroxy-8-(3-methylcyclohex-2-en-1-yl)-2-(2-oxopropyl)-5-pentyl-4H-benzo[d][1,3]dioxin-4-one]",1 to 9.9,2.06,1 to 9.9,,,
"C=C(C)[C@@H]1CCC(C)=C[C@H]1c1c(O)cc(CCCCC)c2c1OC(CC(C)=O)OC2=O (some centres unmarked) [Compound 14d, 7-hydroxy-8-(3-methyl-6-(prop-1-en-2-yl)cyclohex-2-en-1-yl)-2-(2-oxopropyl)-5-pentyl-4H-benzo[d][1,3]dioxin-4-one]",1 to 9.9,4.92,10 to 19.9,,,
"C=C(C)[C@@H]1CCC(C)=C[C@H]1c1c(O)cc(CCCCC)c2c1OC(C)OC2=O (some centres unmarked) [Compound 16d, 7-hydroxy-2-methyl-8-(3-methyl-6-(prop-1-en-2-yl)cyclohex-2-en-1-yl)-5-pentyl-4H-benzo[d][1,3]dioxin-4-one]",,2.44,,,1 to 9.9,1 to 9.9
"C=C(C)[C@@H]1CCC(C)=C[C@H]1c1c(O)cc(CCCCC)c2c1OC(CC)OC2=O (some centres unmarked) [Compound 17d, 2-ethyl-7-hydroxy-8-(3-methyl-6-(prop-1-en-2-yl)cyclohex-2-en-1-yl)-5-pentyl-4H-benzo[d][1,3]dioxin-4-one]",< 1,4.35,1 to 9.9,,,
"C=C(C)[C@@H]1CCC(C)=C[C@H]1c1c(O)cc(CCC)c2c1OCOC2=O [Compound 23d, 7-hydroxy-8-(3-methyl-6-(prop-1-en-2-yl)cyclohex-2-en-1-yl)-5-propyl-4H-benzo[d][1,3]dioxin-4-one]",1 to 9.9,1.00,1 to 9.9,1.00,,
"C=C(C)[C@@H]1CCC(C)=C[C@H]1c1c(O)cc(CCC)c2c1OC(CC(C)=O)(c1ccccc1)OC2=O (some centres unmarked) [Compound 24d, 7-hydroxy-8-(3-methyl-6-(prop-1-en-2-yl)cyclohex-2-en-1-yl)-2-(2-oxopropyl)-2-phenyl-5-propyl-4H-benzo[d][1,3]dioxin-4-one]",,1.00,,1.00,1 to 9.9,1 to 9.9
